Laboratory results reported in paper PMC11281344 (Viruses, 2024).
Read-outs that look alike come from different tables or passages of the source.

Assays:
in vitro = details: hamster
[1] = test system: human herpes simplex virus-2 (HSV-2); details: cited from earlier work
[2] = test system: FMDV serotype A [A/TAI/NP05/2017 (NP05)]; test: microbe, parasite or virus in culture; format: cell-based, Foot-and-mouth disease virus; details: for EC50: read-out: Antiviral Activity (EC50) CPE (Crystal Violet)
ZIKV = details: read-out: IC50 against ZIKV; cited from earlier work
[3] = test system: FMDV serotype A [A/TAI/NP05/2017 (NP05)]; test: microbe, parasite or virus in culture; format: cell-based, Foot-and-mouth disease virus; details: for EC50: read-out: Antiviral Activity (EC50) Viral Copy Number (RT-qPCR)
[4] = test system: FMDV serotype A [A/TAI/NP05/2017 (NP05)]; test: microbe, parasite or virus in culture; format: cell-based, Foot-and-mouth disease virus
FMDV 3D^pol = FMDV 3D^pol (Foot-and-mouth disease virus serotype O, UniProt P03305); test: cell-based; format: cell-based
HSV-1 = details: cited from earlier work
[5] = read-out: Antiviral Activity (EC50) FMDV-Infected Cells (IPMA)
[6] = Foot-and-mouth disease virus, BHK-21, 24 h
[7] = Foot-and-mouth disease virus, BHK-21, read-out: Antiviral Activity (EC50) FMDV-Infected Cells (IPMA)

Sequence of FMDV 3D^pol (P03305 1863-2332 limits assumed): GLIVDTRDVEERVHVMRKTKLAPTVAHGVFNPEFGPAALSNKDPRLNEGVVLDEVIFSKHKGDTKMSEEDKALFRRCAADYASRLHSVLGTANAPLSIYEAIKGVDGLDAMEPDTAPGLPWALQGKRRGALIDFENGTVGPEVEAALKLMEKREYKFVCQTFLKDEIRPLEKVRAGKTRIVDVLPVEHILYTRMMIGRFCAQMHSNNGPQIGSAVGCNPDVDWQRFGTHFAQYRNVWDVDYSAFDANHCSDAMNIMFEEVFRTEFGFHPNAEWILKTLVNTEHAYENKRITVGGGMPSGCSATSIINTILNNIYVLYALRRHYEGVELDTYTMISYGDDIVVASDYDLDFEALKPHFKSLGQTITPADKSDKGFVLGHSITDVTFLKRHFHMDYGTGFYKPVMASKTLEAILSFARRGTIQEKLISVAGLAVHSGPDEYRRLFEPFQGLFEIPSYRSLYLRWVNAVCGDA

## CC(=O)O[C@@]12CO[C@@H]1C[C@H](O)[C@@]1(C)C(=O)[C@H](O)C3=C(C)[C@@H](O)C[C@@](O)([C@@H](OC(=O)c4ccccc4)[C@H]21)C3(C)C [10-Deacetylbaccatin III]
BHK-21 cells
  CC50: > 500 µM

## CC(C)C1=CC2=CC[C@@H]3[C@](C)(CCC[C@@]3(C)C(=O)O)[C@H]2CC1 [Abietic acid]
In vitro
  CC50: 99.2 ± 2 µM
[1]
  Activity against HSV-2 (result in words): did not exhibit such activity
[2]
  Antiviral Activity (EC50) CPE (Crystal Violet): Not inhibit
  Antiviral activity against FMDV infection (result in words): did not exhibit antiviral activity

## C[C@@H]1C[C@@H]([C@@H](O)C(C)(C)O)O[C@H]2C[C@@]3(C)C(=C12)C[C@H](O)[C@H]1[C@@]2(C)CCC(=O)C(C)(C)[C@@H]2CC[C@@]13C [Alisol F]
BHK-21 cells
  CC50: 85.2 ± 1.93 µM

## CC1=CC(=O)[C@@H](O)[C@]2(C)[C@H]3[C@@H](O)[C@H](O)[C@@]4(C)OC[C@@]35[C@@H](C[C@@H]12)OC(=O)[C@H](O)[C@]54O [Bruceine D]
ZIKV
  IC50: 0.36 µM
[2]
  Antiviral activity against FMDV infection (result in words): exhibited antiviral activities
  EC50: 0.25 ± 0.6 µM
[3]
  Concentration range of complete inhibition of FMDV: 1 to 2.5 µM
  EC50: 0.42 ± 0.38 µM
[4]; [5]
  EC50: 0.32 ± 0.49 µM

## CC1=C[C@H](O)[C@@H](O)[C@]2(C)[C@H]3[C@@H](O)[C@H](O)[C@@]4(C)OC[C@@]35[C@@H](C[C@@H]12)OC(=O)[C@H](O)[C@]54O [Bruceine E]
In vitro
  CC50: 49.6 ± 1.7 µM
[2]
  Antiviral activity against FMDV infection (result in words): exhibited antiviral activities
[2]; [6]
  EC50: 18.1 ± 1.26 µM
[3]
  Inhibition of viral load (result in words): moderate potency
[3]; [6]
  EC50: 33.4 ± 1.52 µM
[4]; [7]
  EC50: 12.9 ± 1.11 µM
FMDV 3D^pol
  IC50: 26.7 ± 1.43 µM
  Inhibition of FMDV 3Dpol (result in words): moderate inhibition

## C=CC1(C)C=C2CCC3C(C)(C(=O)O)CCCC3(C)C2CC1 (centres unmarked) [Continentalic acid]
In vitro
  CC50: 88.7 ± 1.82 µM
[2]
  Antiviral activity against FMDV infection (result in words): exhibited antiviral activities
[2]; [6]
  EC50: 43.4 ± 1.64 µM
[3]
  Inhibition of viral load (result in words): moderate inhibition
[3]; [6]
  EC50: 68.3 ± 1.83 µM
[4]; [7]
  EC50: 35 ± 1.54 µM
FMDV 3D^pol
  IC50: 36.9 ± 1.57 µM
  Inhibition of FMDV 3Dpol (result in words): moderate inhibition

## CC(C)(O)CCC(=O)[C@](C)(O)C1[C@H](O)C[C@@]2(C)[C@@H]3CC=C4[C@@H](C[C@H](O)[C@@H](O)C4(C)C)[C@]3(C)C(=O)C[C@]12C (some centres unmarked) [Cucurbitacin IIb]
BHK-21 cells
  CC50: 240.5 ± 2.38 µM

## CC(C)c1ccc2c(c1)CC[C@H]1[C@](C)(C(=O)O)CCC[C@]21C [Dehydroabietic acid]
In vitro
  CC50: 94.8 ± 1.98 µM
[1]
  Activity against HSV-2 (result in words): moderate activity
HSV-1
  Activity against HSV-1 (result in words): did not inhibit
[2]
  Antiviral activity against FMDV infection (result in words): exhibited antiviral activities
[2]; [6]
  EC50: 41.7 ± 1.62 µM
[3]
  Inhibition of viral load (result in words): low to moderate inhibition
[3]; [6]
  EC50: 64.5 ± 1.81 µM
[4]; [7]
  EC50: 34 ± 1.53 µM
FMDV 3D^pol
  IC50: > 50 µM

## C=C1[C@H](OC(=O)c2ccccc2)C[C@H]2[C@@H](/C=C(\C)C(=O)[C@@]3(OC(C)=O)C[C@H](C)[C@H](OC(=O)c4ccccc4)[C@@H]3[C@H]1OC(C)=O)C2(C)C [Euphorbia factor L2]
BHK-21 cells
  CC50: 114 ± 2.06 µM

## CC(=O)O[C@H]1[C@H]2[C@@H](OC(=O)Cc3ccccc3)[C@@H](C)C[C@]2(OC(C)=O)C(=O)/C(C)=C/[C@@H]2[C@H](CC[C@@]13CO3)C2(C)C [Euphorbiasteroid]
BHK-21 cells
  CC50: > 500 µM

## C=C[C@@]1(C)CC(=O)[C@]2(O)[C@@]3(C)[C@@H](O)CCC(C)(C)[C@@H]3[C@H](O)[C@H](OC(C)=O)[C@@]2(C)O1 [Forskolin]
In vitro
  CC50: 75.9 ± 1.88 µM

## C[C@H](CC(=O)C[C@@H](C)[C@H]1C[C@H](O)[C@@]2(C)C3=C(C(=O)C[C@]12C)[C@@]1(C)CCC(=O)C(C)(C)[C@@H]1C[C@@H]3O)C(=O)O [Ganoderic acid A]
In vitro
  CC50: > 500 µM

## C[C@@H]1C(=O)O[C@H]2C[C@@]34[C@H]5C[C@@H](C(C)(C)C)[C@]36[C@@H](OC(=O)[C@@H]6O)O[C@@]4(C(=O)O5)[C@]21O [Ginkgolide A]
In vitro
  CC50: 314.2 ± 2.5 µM

## CC(C)=CCC[C@](C)(O)[C@H]1CC[C@]2(C)[C@@H]1[C@H](O)C[C@@H]1[C@@]3(C)CC[C@H](O[C@@H]4O[C@H](CO)[C@@H](O)[C@H](O)[C@H]4O[C@@H]4O[C@H](CO)[C@@H](O)[C@H](O)[C@H]4O)C(C)(C)[C@@H]3CC[C@]12C [Ginsenoside Rg3]
BHK-21 cells
  CC50: 269.9 ± 2.43 µM

## CC(C)=CCC[C@](C)(O)[C@H]1CC[C@]2(C)[C@@H]1[C@H](O)C[C@@H]1[C@@]3(C)CC[C@H](O)C(C)(C)[C@@H]3[C@@H](O[C@@H]3O[C@H](CO)[C@@H](O)[C@H](O)[C@H]3O)C[C@]12C [Ginsenoside Rh1]
In vitro
  CC50: 174 ± 2.24 µM

## CC1=C[C@]23C(=O)[C@@H](C=C(CO)[C@@H](O)[C@]2(O)[C@H]1O)[C@H]1[C@@H](C[C@H]3C)C1(C)C [Ingenol]
In vitro
  CC50: 417.1 ± 2.62 µM

## C=C1C[C@@]23CC[C@H]4[C@@](C)(CCC[C@@]4(C)C(=O)O)[C@@H]2CC[C@@H]1C3 [Kaurenoic acid]
In vitro
  CC50: 266.1 ± 2.42 µM
[2]
  Antiviral Activity (EC50) CPE (Crystal Violet): Not inhibit
  Antiviral activity against FMDV infection (result in words): did not exhibit antiviral activity

## C=C1CC[C@H]2[C@@H](/C=C(\C)C(=O)[C@@]3(O)C[C@H](C)[C@H](O)[C@@H]3[C@@H]1O)C2(C)C [Lathyrol]
BHK-21 cells
  CC50: 314.6 ± 2.5 µM

## CC1(C)O[C@H]2CC(=O)OC[C@]23[C@H]2CC[C@@]4(C)[C@H](c5ccoc5)OC(=O)[C@H]5O[C@]54[C@]2(C)C(=O)C[C@@H]13 [Limonin]
In vitro
  CC50: 116 ± 2.07 µM

## C=C1C(=O)[C@]23[C@H](O)[C@H]1CC[C@H]2[C@@]12CO[C@]3(O)[C@@H](O)[C@@H]1C(C)(C)CC[C@@H]2O [Oridonin]
In vitro
  CC50: 46.8 ± 1.67 µM

## COC(=O)C1=CC[C@@]23CC[C@@H]([C@@](C)(/C=C/C=C(\C)C(=O)O)OC2=O)[C@@]3(OC(C)=O)CC1 [Pseudolaric acid]
BHK-21 cells
  CC50: 25.3 ± 1.4 µM

## NC(=O)c1ncn([C@@H]2O[C@H](CO)[C@@H](O)[C@H]2O)n1 [Ribavirin, reference compound]
In vitro
  CC50: > 500 µM
[2]; [6]
  EC50: 64.5 ± 1.81 µM
[3]; [6]
  EC50: 27.7 ± 1.44 µM
[4]; [7]
  EC50: 40.9 ± 1.61 µM

## C[C@@H]1CC[C@]2(C(=O)O[C@@H]3O[C@H](CO)[C@@H](O)[C@H](O)[C@H]3O)CC[C@]3(C)C(=CC[C@@H]4[C@@]5(C)C[C@@H](O)[C@H](O)C(C)(C)[C@@H]5CC[C@]43C)[C@@H]2[C@]1(C)O [Rosamultin]
BHK-21 cells
  CC50: 333.2 ± 2.52 µM

## C=C(C(=O)O)[C@H]1CC[C@H](C)[C@@H]2CC(=O)C(C)=C2C1 [Rupestonic acid]
BHK-21 cells
  CC50: 72.3 ± 1.86 µM

## CC1(C)O[C@H]2CC(=O)OC[C@]23[C@H]2CC[C@@]4(C)[C@H](c5ccoc5)OC(=O)[C@H]5O[C@]54[C@]2(C)[C@@H](O)C(=O)[C@@H]13 [Rutaevin]
In vitro
  CC50: 472 ± 2.67 µM

## C[C@H]1O[C@@H](O[C@H]2CC[C@@]3(C)[C@@H](CC[C@]4(C)[C@@H]3C=CC3=C5CC(C)(C)CC[C@]5(CO)[C@H](O)C[C@]34C)[C@]2(C)CO)[C@H](O)[C@@H](O[C@@H]2O[C@H](CO)[C@@H](O)[C@H](O)[C@H]2O)[C@H]1O [Saikosaponin B2]
BHK-21 cells
  CC50: > 500 µM

## CCC(C)(C)C(=O)O[C@H]1C[C@@H](C)C=C2C=C[C@H](C)[C@H](CC[C@@H]3C[C@@H](O)CC(=O)O3)[C@H]21 [Simvastatin, reference compound]
In vitro
  CC50: 294.4 ± 2.47 µM

## CC1(C)CCC2(C(=O)O)CCC3(CO)C(=CCC4C5(C)CC(O)C(OC6OC(CO)C(O)C(O)C6O)C(C)(C(=O)O)C5CCC43C)C2C1 (centres unmarked) [Tenuifolin]
In vitro
  CC50: 54.9 ± 1.74 µM

## CC(C)[C@]12O[C@H]1[C@@H]1O[C@]13[C@]1(O[C@H]1C[C@H]1C4=C(CC[C@@]13C)C(=O)OC4)[C@@H]2O [Triptolide]
In vitro
  CC50: 122 ± 2.09 µM

## CC(C)c1ccc2c(c1O)CC[C@H]1C3=C(CC[C@]21C)C(=O)OC3 [Triptophenolide]
In vitro
  CC50: 117 ± 2.07 µM

## C[C@@H]1CC[C@]2(C(=O)O)CC[C@]3(C)C(=CC[C@@H]4[C@@]5(C)CC[C@H](O[C@@H]6OC[C@H](O)[C@H](O)[C@H]6O)C(C)(C)[C@@H]5CC[C@]43C)[C@@H]2[C@]1(C)O [Ziyuglycoside II]
BHK-21 cells
  CC50: 57.7 ± 1.76 µM

## Brusatol
[2]
  Antiviral activity against FMDV infection (result in words): exhibited antiviral activities
  EC50: 0.18 ± 0.27 µM
[3]
  Concentration range of complete inhibition of FMDV: 0.5 to 1 µM
  EC50: 0.09 µM
[4]; [5]
  EC50: 0.07 µM
